Counter-ions that a name gives are not always drawn.
biological target: T1, PDEV (Homo sapiens, UniProt O76074); experiment: In vitro determination of Ki for phosphodiesterase inhibitors; format: biochemical; conditions: human tissue; given as 'Ki ='
T1 construct: PDEV was isolated from rabbit and human tissues according to the protocol described by Boolell et al; from tissue; host or cells: human tissue, homogenate supernatant fractionated on Mono Q
Experimental: The assays were adapted to a 96-well format. Phosphodiesterase was assayed in 5 mM MgCl2, 15 mM Tris HCl (pH 7.4), 0.5 mg/ml bovine serum albumin, 30 nM ^3H-cGMP and test compound at various concentrations. The amount of enzyme used for each reaction was such that less than 15% of the initial substrate was converted during the assay period. For all measurements, the test compound was dissolved and diluted in 100% DMSO (2% DMSO in assay). The total volume of the assay was 100 μl. The reaction mixture was incubated at 30° C. for 90 minutes. The reaction was stopped by boiling for 1 minute and then immediately cooled by transfer to an ice bath. To each well was then added 25 μl 1 mg/ml snake venom (Ophiophagus hannah) and the reaction mixture incubating at 30° C. for 10 minute. The reaction was stopped by the addition of 1 ml Bio-Rad AG1-X2 resin slurry (1:3). An aliquot of 200 μl was taken and counted by liquid scintillation.
(§1) The % inhibition of the maximum substrate conversion (by the enzyme in the absence of inhibitor) was calculated for each test compound concentration. Using GraphPad Prism's nonlinear regression analysis (sigmoidal dose response), the % inhibition vs log of the test compound concentration was plotted to determine the IC50. Under conditions where substrate concentration <<Km of the enzyme (Km=substrate concentration at which half of the maximal velocity of the enzyme is achieved), Ki is equivalent to the IC50 value.
(§2) Unless otherwise noted, PDEV inhibitory activities were measured using human tissue. The abbreviation “stereo” refers to the stereogenic configuration, the abbreviation “Rac” shall denote a racemic mixture.

| Compound | Ki |
| --- | --- |
| Cc1ncc(-c2cnc(N3Cc4c([nH]c5ccccc5c4=O)C3c3ccc4c(c3)CCO4)nc2)n1C (stereo not drawn) [Compound 128, 3-(2,3-Dihydro-benzofuran-5-yl)-2-[5-(2,3-dimethyl-3H-imidazol-4-yl)-pyrimidin-2-yl]-1,2,3,4-tetrahydro-pyrrolo[3,4-β]quinolin-9-one] | 0.3 nM |
| Oc1c2c(nc3ccccc13)C(c1ccc3c(c1)OCO3)N(c1ccc(-n3ccnc3)cc1)C2 (racemic) [Compound 133, 3-Benzo[1,3]dioxol-5-yl-2-(4-imidazol-1-yl-phenyl)-1,2,3,4-tetrahydro-pyrrolo[3,4-b]quinolin-9-one] | 1.75 nM |
| O=c1c2c([nH]c3ccccc13)C(c1ccc3c(c1)CCO3)N(c1ccccn1)C2 (stereo not shown) [Compound 136, 3-(2,3-Dihydro-benzofuran-5-yl)-2-pyridin-2-yl-1,2,3,4-tetrahydro-pyrrolo[3,4-b]quinolin-9-one] | 0.18 nM |
| O=c1c2c([nH]c3ccccc13)C(c1ccc3c(c1)CCO3)N(c1ccccn1)C2 (racemic) [Compound 129, 3-(2,3-Dihydro-benzofuran-5-yl)-2-pyridin-2-yl-1,2,3,4-tetrahydro-pyrrolo[3,4-b]quinolin-9-one] | 0.65 nM |
| Oc1c2c(nc3ccccc13)C(c1ccc3c(c1)CCO3)N(c1ccc(-c3ccccn3)cn1)C2 (racemic) [Compound 134, 2-[2,3′]Bipyridinyl-6′-yl-3-(2,3-dihydro-benzofuran-5-yl)-1,2,3,4-tetrahydro-pyrrolo[3,4-b]quinolin-9-one] | 1.1 nM |
| Oc1c2c(nc3ccccc13)C(c1ccc3occc3c1)N(c1ncc(-c3ccccn3)cn1)C2 (racemic) [Compound 126, 3-Benzofuran-5-yl-2-(5-pyridin-2-yl-pyrimidin-2-yl)-1,2,3,4-tetrahydro-pyrrolo[3,4-b]quinolin-9-one] | 0.138 nM |

biological target: T1, PDEV; experiment: PDE assay: inhibition of PDEV isolated from human tissue; format: biochemical; conditions: 10 μM test compound
Experimental: (§3) Briefly, rabbit or human tissues were homogenized in an ice-cold buffer solution containing 20 mM HEPES (pH 7.2), 0.25M sucrose, 1 mM EDTA, and 1 mM phenylmethylsulphonyl fluoride (PMSF). The homogenates were centrifuged at 100,000 g for 60 minutes at 4° C. The supernatant was filtered through […] filter and loaded on a Pharmacia Mono Q anion exchange column (1 ml bed volume) that was equilibrated with 20 mM HEPES, 1 mM EDTA and 0.5 mM PMSF. After washing out unbound proteins, the enzymes were eluted with a linear gradient of 100-600 mM NaCl in the same buffer (35 to 50 ml total, depending on the tissue. Enzymes from the skeletal muscle, corpus cavernosum, retina, heart and platelet were eluted with 35, 40, 45, 50, and 50 ml respectively.) The column was run at a flow rate of 1 ml/min and 1 ml fractions were collected. The fractions comprising various PDE activities were pooled separately and used in later studies.
(§4) The assays were adapted to a 96-well format. The enzyme was assayed in 5 mM MgCl2, 15 mM Tris HCl (pH 7.4), 0.5 mg/ml bovine serum albumin, 1 μM cGMP or cAMP, 0.1 μCi [^3H]-cGMP or [^3H]-cAMP, and 2-10 μl of column elution. The total volume of the assay was 100 μl. The reaction mixture was incubated at 30° C. for 30 minutes. The reaction was stopped by boiling for 1 minute and then cooled down on ice. The resulting [^3H]5′-mononucleotides were further converted to uncharged [^3H]-nucleosides by adding 25 μl 1 mg/ml snake venom (Ophiophagus hannah) and incubating at 30° C. for 10 minute. The reaction was stopped by the addition of 1 ml Bio-Rad AG1-X2 resin slurry (1:3). All the charged nucleotides were bound by the resin and only uncharged [^3H]-nucleosides remained in the supernatant after centrifuging. An aliquot of 200 μl was taken and counted by liquid scintillation. PDE activity was expressed as pmol cyclic nucleotide hydrolyzed/min/ml of enzyme preparation.
(§5) Inhibitor studies were carried out in assay buffer with a final concentration of 10% DMSO.
as §1, §2

| Compound | inhibition at 10 µM |
| --- | --- |
| O=c1c2c([nH]c3ccccc13)C(c1ccc3c(c1)CCO3)NC2 (racemic) [Compound 17, 1,2,3,4-Tetrahydro-3-(2,3-dihydrobenzofuran-5-yl)-9H-pyrrolo-[3,4-b]quinolin-9-one, hydrochloride salt] | 65% |

same assay, conditions: PDEV inhibitory activity

| Compound | IC50 |
| --- | --- |
| O=c1c2c([nH]c3ccccc13)C(c1ccc3c(c1)OCO3)N(c1ncc(-c3ccncc3)cn1)C2 (racemic) [Compound 57, 1,2,3,4-Tetrahydro-2-[5-(4-pyridinyl)-pyrimidin-2-yl]-3-(3,4-methylenedioxyphenyl)-9H-pyrrolo-[3,4-b]quinolin-9-one] | 0.84 nM |
| O=C(c1ccc(-c2ccccc2)o1)N1Cc2c(nc3ccccc3c2O)C1c1ccc2c(c1)OCO2 (racemic) [Compound 110] | 0.755 nM |
| O=c1c2c([nH]c3ccccc13)C(c1ccc3c(c1)OCO3)NC2 (racemic) [Compound 4, 1,2,3,4-Tetrahydro-3-(3,4-methylenedioxyphenyl)-9H-pyrrolo-[3,4-b]quinolin-9-one, hydrochloride salt] | 664 nM |
| O=C(c1cccnc1O)N1Cc2c([nH]c3ccccc3c2=O)C1c1ccc2c(c1)OCO2 (racemic) [Compound 25, 1,2,3,4-Tetrahydro-3-(3,4-methylenedioxyphenyl)-2-[2-hydroxynicotinoyl)-9H-pyrrolo[3,4-b]-quinolin-9-one] | 1.57 nM |
| Oc1c2c(nc3ccccc13)[C@@H](c1ccc3c(c1)CCO3)N(c1ncc(-c3ccccn3)cn1)C2 [Compound 76] | 0.23 nM |
| Oc1c2c(nc3ccccc13)C(c1ccc3c(c1)CCO3)N(c1ncc(Br)cn1)C2 (racemic) [Compound 74] | 1.9 nM |
| O=Cc1ccc(-c2ccc(C(=O)N3Cc4c([nH]c5ccccc5c4=O)C3c3ccc4c(c3)OCO4)o2)cc1 (stereo not shown) [Compound 23, 1,2,3,4-Tetrahydro-3-(3,4-methylenedioxyphenyl)-2-[5-(4-formylphenyl)-furoyl]-9H-pyrrolo[3,4-b]-quinolin-9-one] | 1.76 nM |
| O=c1c2c([nH]c3ccccc13)C(c1ccc3c(c1)OCO3)N(Cc1ccncc1)C2 (racemic) [Compound 5, 1,2,3,4-Tetrahydro-3-(3,4-methylenedioxyphenyl)-2-(pyridin-4-yl)methyl-9H-pyrrolo-[3,4-b]quinolin-9-one] | 688 nM |
| COc1ccc(-c2cnc(N3Cc4c([nH]c5ccccc5c4=O)C3c3ccc(OC)c(OC)c3)nc2)cc1OC (stereo not shown) [Compound 15, 1,2,3,4-Tetrahydro-[5-(3,4-dimethoxyphenyl)-pyrimidin-2-yl]-3-(3,4-dimethoxyphenyl)-9H-pyrrolo[3,4-b]quinolin-9-one] | 1160 nM |

biological target: PDEV (Oryctolagus cuniculus, UniProt G1SX67); experiment: PDE assay: inhibition of PDEV isolated from rabbit tissue; format: biochemical; conditions: PDEV inhibitory activity, rabbit tissue (footnote a)
Experimental: as §3, §4, §5, §1, §2

| Compound | IC50 |
| --- | --- |
| COc1ccc(-c2cnc(N3Cc4c([nH]c5ccccc5c4=O)[C@@H]3c3ccc4c(c3)OCO4)nc2)cc1OC [Compound 35, (S)-1,2,3,4-Tetrahydro-2-[5-(3,4-dimethoxyphenyl)-pyrimidin-2-yl]-3-(3,4-methylenedioxyphenyl)-9H-pyrrolo-[3,4-b]quinolin-9-one] | 1.42 nM |
| CC(C)(C)OC(=O)N1Cc2c([nH]c3ccccc3c2=O)C1c1ccc2c(c1)OCO2 (racemic) [Compound 3, 1,2,3,4-Tetrahydro-2-(tert-butoxycarbonyl)-3-(3,4-methylenedioxyphenyl)-9H-pyrrolo-[3,4-b]quinolin-9-one] | 340 nM |
| O=C(OCc1ccccc1)N1Cc2c(nc3ccccc3c2O)C1c1ccc2c(c1)OCO2 (racemic) [Compound 27, 1,2,3,4-Tetrahydro-2-(benzyloxycarbonyl)-3-(3,4-methylenedioxyphenyl)-9H-pyrrolo-[3,4-b]quinolin-9-one] | 3.4 nM |
| O=C(OCc1ccncc1)N1Cc2c([nH]c3ccccc3c2=O)C1c1ccc2c(c1)CCO2 (racemic) [Compound 53, 1,2,3,4-Tetrahydro-2-[(4-pyridinyl)methyloxycarbonyl]-3-(2,3-dihydrobenzofuran-5-yl)-9H-pyrrolo-[3,4-b]quinolin-9-one] | 5.34 nM |
| COC(=O)c1ccc(/C=C/C(=O)N2Cc3c(n(C)c4ccccc4c3=O)C2c2ccc3c(c2)OCO3)cc1 (racemic) [Compound 63, (E)-4-[3-Oxo-3-[1,2,3,4-tetrahydro-3-(3,4-methylenedioxyphenyl)-4-methyl-9H-pyrrolo-[3,4-b]quinolin-9-one-2-yl]-1-propenyl]benzoic acid, methyl ester] | 511 nM |
| O=c1c2c([nH]c3ccccc13)[C@@H](c1ccc3c(c1)OCO3)N(c1ccc(-c3cccc(C(F)(F)F)c3)o1)C2 [Compound 50, (R)-1,2,3,4-Tetrahydro-3-(3,4-methylenedioxyphenyl)-2-[5-(3-trifluoromethylphenyl)furo-2-yl]-9H-pyrrolo-[3,4-b]quinolin-9-one] | 0.61 nM |
| O=C(c1cc2ccc(OCCN3CCOCC3)cc2o1)N1Cc2c([nH]c3ccccc3c2=O)C1c1ccc2c(c1)OCO2 (racemic) [Compound 49, hydrochloride salt] | 1.13 nM |
| (E)-4-[3-Oxo-3-[1,2,3,4-tetrahydro-3-(3,4-methylenedioxyphenyl)-9-methoxy-9H-pyrrolo-[3,4-b]quinolin-2-yl]-1-propenyl]benzoic acid, methyl ester [Compound 64] | 113 nM |
| O=C(c1ccc(Br)o1)N1Cc2c(nc3ccccc3c2O)C1c1ccc2c(c1)OCO2 (racemic) [Compound 30, 1,2,3,4-Tetrahydro-3-(3,4-methylenedioxyphenyl)-2-(5-(2-bromo)-furoyl)-9H-pyrrolo[3,4-b]quinolin-9-one] | 5.2 nM |

From patent US6818646B2 (priority 2000, dated 2004)
